Consider eight molecules from ChEMBL document CHEMBL5465560, “Selectivity Literature for EUbOPEN Chemogenomic Library” (2024).

Assay [1] addresses T1, Non-receptor tyrosine-protein kinase TNK1 (Homo sapiens) (UniProt Q13470).
T1 sequence (whole entry): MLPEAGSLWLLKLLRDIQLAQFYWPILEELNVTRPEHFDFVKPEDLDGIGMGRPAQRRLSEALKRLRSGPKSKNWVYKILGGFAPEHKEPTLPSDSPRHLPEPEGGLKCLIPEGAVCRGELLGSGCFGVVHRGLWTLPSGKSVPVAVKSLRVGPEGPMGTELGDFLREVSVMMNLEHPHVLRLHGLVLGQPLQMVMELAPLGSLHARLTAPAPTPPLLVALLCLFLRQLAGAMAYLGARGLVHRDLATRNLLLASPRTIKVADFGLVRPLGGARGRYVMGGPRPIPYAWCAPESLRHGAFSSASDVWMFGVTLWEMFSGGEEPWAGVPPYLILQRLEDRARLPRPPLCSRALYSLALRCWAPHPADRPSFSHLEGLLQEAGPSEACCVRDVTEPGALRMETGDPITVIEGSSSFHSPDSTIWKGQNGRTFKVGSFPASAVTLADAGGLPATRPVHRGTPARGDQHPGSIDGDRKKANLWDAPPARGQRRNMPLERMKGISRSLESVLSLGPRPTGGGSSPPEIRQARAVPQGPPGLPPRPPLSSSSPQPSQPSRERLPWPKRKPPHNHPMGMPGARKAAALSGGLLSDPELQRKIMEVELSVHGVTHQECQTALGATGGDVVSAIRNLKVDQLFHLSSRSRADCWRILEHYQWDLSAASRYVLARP
The experiment in a line: Selectivity interaction (KinomeScan (DiscoverX)) EUB0000695a TNK1. To be noted: at 100 nM.

The target in assay [2] is Tyrosine-protein kinase Fyn (Homo sapiens) (UniProt P06241). The experiment in a line: Selectivity interaction (Kinase screening (Upstate/Millipore)) EUB0000604a FYN.
The target in assay [3] is G protein-coupled receptor kinase 4 (Homo sapiens) (UniProt P32298). The experiment in a line: Selectivity interaction (KinomeScan (DiscoverX)) EUB0000666a GRK4. To be noted: at 10 µM.
Assay [4] deals with T2, G protein-coupled receptor kinase 3 (Homo sapiens) (UniProt P35626).
T2 sequence (whole entry): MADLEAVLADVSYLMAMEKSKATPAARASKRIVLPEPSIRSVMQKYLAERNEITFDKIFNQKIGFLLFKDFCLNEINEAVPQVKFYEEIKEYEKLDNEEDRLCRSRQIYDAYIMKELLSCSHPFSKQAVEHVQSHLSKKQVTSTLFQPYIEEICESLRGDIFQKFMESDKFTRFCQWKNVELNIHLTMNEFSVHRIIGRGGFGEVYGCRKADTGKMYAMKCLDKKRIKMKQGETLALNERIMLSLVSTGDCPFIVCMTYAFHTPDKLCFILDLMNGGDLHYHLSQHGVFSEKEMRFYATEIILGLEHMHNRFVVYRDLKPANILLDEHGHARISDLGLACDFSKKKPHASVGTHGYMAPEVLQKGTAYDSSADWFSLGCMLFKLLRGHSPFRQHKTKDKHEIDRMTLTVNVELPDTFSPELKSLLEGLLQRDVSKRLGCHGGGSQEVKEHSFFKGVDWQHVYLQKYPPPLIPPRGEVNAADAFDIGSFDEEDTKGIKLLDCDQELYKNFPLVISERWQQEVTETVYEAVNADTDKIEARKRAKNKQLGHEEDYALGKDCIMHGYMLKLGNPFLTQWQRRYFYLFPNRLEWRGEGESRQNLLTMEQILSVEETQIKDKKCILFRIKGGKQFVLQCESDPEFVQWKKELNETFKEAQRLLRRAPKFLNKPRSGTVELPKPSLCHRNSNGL
Kind of assay: Selectivity interaction (Kinase panel (Z-LYTE Assay)) EUB0001632a ADRBK2. The conditions noted are these: at 10 µM.

The subject of assay [5] is Tyrosine-protein kinase ABL1 (Homo sapiens), P00519 [E255K]. Kind of assay: (§1) Selectivity interaction (KinomeScan (DiscoverX)) EUB0000607a ABL1. The conditions noted are these: at 10 µM.
Assay [6] deals with Tyrosine-protein kinase ABL1 (Homo sapiens), P00519 [F317I]. The assay is described as §1. The conditions noted are these: at 10 µM.
Assay [7] deals with Tyrosine-protein kinase ABL1 (Homo sapiens), P00519 [F317L]. Described as §1. To be noted: at 10 µM.
The test system of assay [8] is Tyrosine-protein kinase ABL1 (Homo sapiens), P00519 [H396P]. Described as §1. The conditions noted are these: at 10 µM.
Assay [9] deals with Tyrosine-protein kinase ABL1 (Homo sapiens), P00519 [M351T]. Described as §1. To be noted: at 10 µM.
Assay [10] deals with Tyrosine-protein kinase ABL1 (Homo sapiens), P00519 [Q252H]. The description is as §1. The conditions noted are these: at 10 µM.
In assay [11] the test system is Tyrosine-protein kinase ABL1 (Homo sapiens), P00519 [Y253F]. Described as §1. To be noted: at 10 µM.
Assay [12] concerns the target Tyrosine-protein kinase ABL1 (Homo sapiens, UniProt P00519). Described as §1. The conditions noted are these: at 10 µM.
Assay [13] deals with MAP/microtubule affinity-regulating kinase 3 (Homo sapiens) (UniProt P27448). Kind of assay: Selectivity interaction (ActivX KiNativ screen (kinase selectivity in THP-1 cell lysates)) EUB0000639a MARK3. It is filed as subcellular. To be noted: lysate, at 5 µM.
Assay [14] deals with Vascular endothelial growth factor receptor 2 (Homo sapiens, UniProt P35968).
The target of assay [15] is Tyrosine-protein kinase Fer (Homo sapiens) (UniProt P16591). The experiment in a line: Selectivity interaction (KinomeScan (DiscoverX)) EUB0000618a FER. The conditions noted are these: at 10 µM.
Sequence of Tyrosine-protein kinase Fer (Homo sapiens) (P16591 whole entry, looked up): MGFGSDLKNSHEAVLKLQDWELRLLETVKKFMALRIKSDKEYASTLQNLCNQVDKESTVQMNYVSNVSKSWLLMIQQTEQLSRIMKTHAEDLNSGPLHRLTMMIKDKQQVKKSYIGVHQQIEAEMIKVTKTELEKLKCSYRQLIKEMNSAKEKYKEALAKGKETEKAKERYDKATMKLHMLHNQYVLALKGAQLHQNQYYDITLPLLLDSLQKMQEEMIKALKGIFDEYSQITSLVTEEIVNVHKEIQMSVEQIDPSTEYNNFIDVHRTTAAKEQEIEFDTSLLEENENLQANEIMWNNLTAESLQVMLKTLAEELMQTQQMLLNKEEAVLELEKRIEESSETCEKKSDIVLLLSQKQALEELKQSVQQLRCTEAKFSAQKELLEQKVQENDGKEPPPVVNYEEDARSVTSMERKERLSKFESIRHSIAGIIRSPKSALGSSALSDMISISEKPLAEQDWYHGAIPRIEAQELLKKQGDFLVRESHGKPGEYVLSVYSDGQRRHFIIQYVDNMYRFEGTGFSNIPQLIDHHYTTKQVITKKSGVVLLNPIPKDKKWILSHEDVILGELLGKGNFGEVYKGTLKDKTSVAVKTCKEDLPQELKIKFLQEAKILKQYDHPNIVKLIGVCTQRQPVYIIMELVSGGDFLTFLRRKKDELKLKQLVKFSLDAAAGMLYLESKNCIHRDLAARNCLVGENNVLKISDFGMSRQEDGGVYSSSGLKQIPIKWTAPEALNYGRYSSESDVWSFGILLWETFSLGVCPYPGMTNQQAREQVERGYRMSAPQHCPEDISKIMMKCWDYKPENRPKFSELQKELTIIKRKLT

Sequence of Tyrosine-protein kinase Fyn (Homo sapiens) (P06241 2-537 limits assumed): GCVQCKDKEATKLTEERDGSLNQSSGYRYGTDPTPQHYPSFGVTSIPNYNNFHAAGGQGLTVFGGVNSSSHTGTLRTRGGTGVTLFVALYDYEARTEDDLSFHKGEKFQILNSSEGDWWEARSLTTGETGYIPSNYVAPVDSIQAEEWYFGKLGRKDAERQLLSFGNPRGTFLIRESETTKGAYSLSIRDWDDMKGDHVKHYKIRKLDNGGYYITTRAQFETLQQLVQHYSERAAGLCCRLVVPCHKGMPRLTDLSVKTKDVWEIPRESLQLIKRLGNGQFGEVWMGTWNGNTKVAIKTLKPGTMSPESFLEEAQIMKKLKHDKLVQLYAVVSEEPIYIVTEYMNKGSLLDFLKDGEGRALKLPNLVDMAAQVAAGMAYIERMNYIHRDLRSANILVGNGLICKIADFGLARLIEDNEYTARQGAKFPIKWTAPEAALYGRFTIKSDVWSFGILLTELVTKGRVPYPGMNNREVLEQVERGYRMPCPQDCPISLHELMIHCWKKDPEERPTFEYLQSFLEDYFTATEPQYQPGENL
Sequence of MAP/microtubule affinity-regulating kinase 3 (Homo sapiens) (P27448 whole entry, looked up): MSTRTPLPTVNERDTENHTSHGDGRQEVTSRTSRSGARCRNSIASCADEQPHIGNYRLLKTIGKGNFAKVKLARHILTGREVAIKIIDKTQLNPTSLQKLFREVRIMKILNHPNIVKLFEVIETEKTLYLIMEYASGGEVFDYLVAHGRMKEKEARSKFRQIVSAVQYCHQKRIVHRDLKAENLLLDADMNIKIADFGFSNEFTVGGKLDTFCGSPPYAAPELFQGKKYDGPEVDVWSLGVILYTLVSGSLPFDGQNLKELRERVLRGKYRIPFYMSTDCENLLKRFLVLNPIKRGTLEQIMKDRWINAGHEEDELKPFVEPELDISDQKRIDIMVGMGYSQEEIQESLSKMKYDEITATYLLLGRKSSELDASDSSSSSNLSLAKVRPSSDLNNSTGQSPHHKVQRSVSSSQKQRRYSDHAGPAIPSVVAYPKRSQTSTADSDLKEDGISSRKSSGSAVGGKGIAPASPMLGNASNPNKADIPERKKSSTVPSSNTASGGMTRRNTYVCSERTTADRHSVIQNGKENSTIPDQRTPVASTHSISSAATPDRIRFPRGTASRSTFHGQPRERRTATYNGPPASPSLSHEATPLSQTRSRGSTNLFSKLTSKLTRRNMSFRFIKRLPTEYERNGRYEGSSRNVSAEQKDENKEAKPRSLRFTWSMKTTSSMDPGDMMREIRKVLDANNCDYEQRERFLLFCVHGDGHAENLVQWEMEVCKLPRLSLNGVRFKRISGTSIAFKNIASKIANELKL
Sequence of Vascular endothelial growth factor receptor 2 (P35968 whole entry): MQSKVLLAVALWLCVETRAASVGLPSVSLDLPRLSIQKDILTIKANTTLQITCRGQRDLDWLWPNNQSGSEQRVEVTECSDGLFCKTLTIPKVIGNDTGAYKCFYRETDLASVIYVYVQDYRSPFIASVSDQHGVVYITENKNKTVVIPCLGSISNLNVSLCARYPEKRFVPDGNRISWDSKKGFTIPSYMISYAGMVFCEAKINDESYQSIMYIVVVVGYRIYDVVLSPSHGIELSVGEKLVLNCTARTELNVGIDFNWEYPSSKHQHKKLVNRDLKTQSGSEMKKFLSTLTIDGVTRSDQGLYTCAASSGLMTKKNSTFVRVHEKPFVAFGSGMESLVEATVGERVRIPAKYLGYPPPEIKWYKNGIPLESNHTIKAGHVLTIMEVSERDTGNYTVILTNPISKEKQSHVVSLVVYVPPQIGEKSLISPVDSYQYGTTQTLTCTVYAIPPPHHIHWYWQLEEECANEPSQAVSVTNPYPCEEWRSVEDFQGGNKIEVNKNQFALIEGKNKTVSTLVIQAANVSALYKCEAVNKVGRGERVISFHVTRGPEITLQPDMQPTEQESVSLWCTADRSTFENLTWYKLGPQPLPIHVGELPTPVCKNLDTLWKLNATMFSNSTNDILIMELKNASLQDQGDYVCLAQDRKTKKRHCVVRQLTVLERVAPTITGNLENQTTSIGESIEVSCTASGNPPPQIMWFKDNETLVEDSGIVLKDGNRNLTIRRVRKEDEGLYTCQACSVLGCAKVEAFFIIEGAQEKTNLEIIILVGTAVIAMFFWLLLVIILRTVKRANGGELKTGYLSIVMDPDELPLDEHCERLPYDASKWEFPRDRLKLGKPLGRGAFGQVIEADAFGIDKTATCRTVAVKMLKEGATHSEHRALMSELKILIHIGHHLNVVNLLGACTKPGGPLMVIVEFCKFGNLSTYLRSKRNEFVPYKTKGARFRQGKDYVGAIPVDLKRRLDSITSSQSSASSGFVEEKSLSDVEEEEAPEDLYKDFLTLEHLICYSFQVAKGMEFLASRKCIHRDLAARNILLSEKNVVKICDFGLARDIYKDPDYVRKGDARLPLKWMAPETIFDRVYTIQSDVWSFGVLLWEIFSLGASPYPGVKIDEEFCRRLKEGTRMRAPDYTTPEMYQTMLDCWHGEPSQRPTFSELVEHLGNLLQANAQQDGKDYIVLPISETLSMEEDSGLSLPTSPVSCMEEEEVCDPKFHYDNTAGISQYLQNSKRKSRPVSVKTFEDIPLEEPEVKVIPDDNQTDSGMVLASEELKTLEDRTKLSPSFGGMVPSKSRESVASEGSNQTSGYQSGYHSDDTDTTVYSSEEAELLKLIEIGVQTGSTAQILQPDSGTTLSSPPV
Sequence of G protein-coupled receptor kinase 4 (Homo sapiens) (P32298 whole entry, looked up): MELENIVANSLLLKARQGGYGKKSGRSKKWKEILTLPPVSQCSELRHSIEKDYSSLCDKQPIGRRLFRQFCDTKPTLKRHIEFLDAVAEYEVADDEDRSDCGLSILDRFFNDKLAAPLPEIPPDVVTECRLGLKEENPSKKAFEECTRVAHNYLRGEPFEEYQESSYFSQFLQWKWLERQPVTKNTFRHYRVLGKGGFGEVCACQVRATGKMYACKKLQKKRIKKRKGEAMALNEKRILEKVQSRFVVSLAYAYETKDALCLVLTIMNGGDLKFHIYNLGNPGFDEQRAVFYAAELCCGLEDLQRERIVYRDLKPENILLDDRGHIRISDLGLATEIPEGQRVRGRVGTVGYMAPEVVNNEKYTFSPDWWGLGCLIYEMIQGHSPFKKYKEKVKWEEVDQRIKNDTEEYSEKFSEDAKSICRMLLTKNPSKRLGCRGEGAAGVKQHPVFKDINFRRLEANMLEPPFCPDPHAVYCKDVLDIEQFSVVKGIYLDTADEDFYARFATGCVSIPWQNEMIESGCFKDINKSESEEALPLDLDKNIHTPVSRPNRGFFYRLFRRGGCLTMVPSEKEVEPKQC

For `Cc1cc(F)c(C(=O)Nc2cccc(-c3nncn3C(C)C)n2)cc1-n1cnc(C2CC2)c1`, the % of control in [1] stood at 100%.

Take `Cc1cnc(Nc2ccc(F)cc2Cl)nc1-c1c[nH]c(C(=O)N[C@H](CO)c2cccc(Cl)c2)c1`: the % of inhibition in assay [2] was 11%. With `O=C(NOC[C@H](O)CO)c1ccc(F)c(F)c1Nc1ccc(I)cc1F`, the % of control in assay [3] was determined as 100%. Take `Cn1cc(-n2cnc3c(NCc4nc5cc(Cl)c(Cl)cc5[nH]4)nc(N4CCOCC4)nc32)cn1`: the % of control in assay [4] was -1.17%. For the molecule `CNC(=O)Nc1ccc(-c2nc(N3CC4CCC(C3)O4)c3cnn(C4CCC5(CC4)OCCO5)c3n2)cc1`, the % of control in [5], in [6], in assay [7], in assay [8], in assay [9] and in [10] was 100% throughout. Besides, the % of control is 99% in assay [11] and 100% in [12]. Molecule `CC[C@@H]1[C@H](F)C(=O)N[C@@H]1COc1nccc2cc(C(N)=O)c(OC)cc12` [ZIMLOVISERTIB] displayed a % of inhibition in [13] of 36.9%. In the case of `CCc1cccc(CC)c1NC(=O)c1nn(C)c2c1CCc1cnc(Nc3ccc(C(=O)NC4CCN(C)CC4)cc3OC(F)(F)F)nc1-2`, the IC50 in assay [14] is > 10 µM.

Turning to `O[C@H]1CC[C@H](Nc2ncc3nc(Nc4c(F)cc(F)cc4F)n([C@H]4CCOC4)c3n2)CC1`, the % of control in assay [15] came to 100%.

As usually defined, the IC50 is the concentration that gives 50% inhibition. The low end stands for greater potency in that assay, the high end for weaker potency in that assay.
